{
  "source": "ChEMBL document CHEMBL4706552",
  "about": "“Discovery of 4-methyl-N-(4-((4-methylpiperazin- 1-yl)methyl)-3-(trifluoromethyl)phenyl)-3-((6-(pyridin-3-yl)-1H-pyrazolo[3,4-d]pyrimidin-4-yl)-oxy)benzamide as a potent inhibitor of RET and its gatekeeper mutant” (Eur J Med Chem, 2020)",
  "key": {"[1]": {"system": "Proto-oncogene tyrosine-protein kinase receptor Ret (Homo sapiens), P07949 [V804M]", "sequence (P07949 whole entry V804M, the tested form may be a part)": "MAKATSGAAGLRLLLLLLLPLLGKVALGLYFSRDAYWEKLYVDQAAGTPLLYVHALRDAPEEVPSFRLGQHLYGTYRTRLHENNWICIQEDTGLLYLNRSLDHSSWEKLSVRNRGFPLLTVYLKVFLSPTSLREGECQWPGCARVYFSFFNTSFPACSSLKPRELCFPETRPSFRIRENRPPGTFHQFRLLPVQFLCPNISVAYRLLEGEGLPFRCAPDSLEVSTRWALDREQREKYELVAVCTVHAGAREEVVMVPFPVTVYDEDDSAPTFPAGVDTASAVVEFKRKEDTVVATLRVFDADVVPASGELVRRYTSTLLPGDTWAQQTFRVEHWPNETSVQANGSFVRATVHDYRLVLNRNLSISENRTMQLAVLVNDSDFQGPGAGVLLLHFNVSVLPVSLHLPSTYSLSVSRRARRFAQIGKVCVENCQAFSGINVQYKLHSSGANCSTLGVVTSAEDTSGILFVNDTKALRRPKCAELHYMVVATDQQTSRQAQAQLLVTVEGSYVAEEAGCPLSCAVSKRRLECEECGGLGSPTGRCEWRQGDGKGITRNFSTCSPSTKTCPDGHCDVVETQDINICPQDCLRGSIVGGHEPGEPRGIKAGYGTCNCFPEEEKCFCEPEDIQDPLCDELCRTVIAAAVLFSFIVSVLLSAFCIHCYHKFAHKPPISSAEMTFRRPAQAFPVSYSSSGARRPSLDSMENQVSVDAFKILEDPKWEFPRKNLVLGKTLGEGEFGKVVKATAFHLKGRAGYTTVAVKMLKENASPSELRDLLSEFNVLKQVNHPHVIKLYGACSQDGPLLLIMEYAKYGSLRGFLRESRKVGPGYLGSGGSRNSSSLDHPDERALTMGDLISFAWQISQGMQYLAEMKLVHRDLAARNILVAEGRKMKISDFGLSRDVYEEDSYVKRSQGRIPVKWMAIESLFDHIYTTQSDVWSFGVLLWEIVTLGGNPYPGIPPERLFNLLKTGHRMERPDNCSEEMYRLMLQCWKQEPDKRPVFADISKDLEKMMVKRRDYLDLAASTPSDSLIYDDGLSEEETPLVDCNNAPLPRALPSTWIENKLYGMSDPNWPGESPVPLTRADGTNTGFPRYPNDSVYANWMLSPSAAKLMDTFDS", "assay": "Binding affinity to wild-type human partial length RET V804M mutant (E713 to D1014 residues) expressed in bacterial expression system assessed as residual binding level at 1 uM by kinomescan method relative to control"}, "[2]": {"system": "Mus musculus", "assay": "(§1) In vivo inhibition of KIF5B-RET fusion protein in BALB/c mouse implanted with KIF5B-RET fusion protein expressing mouse BaF3 cells assessed as reduction in RET phosphorylation at 30 to 50 mg/kg, iv administered daily for 7 days and measured 4 hrs post last dose by Western blot analysis", "type": "functional, organism-based", "conditions": "dose 30-50 mg/kg, time 7.0 day"}, "[3]": {"assay": "Cmax in Sprague-Dawley rat at 10 mg/kg, po", "type": "ADME, organism-based", "design": "route oral, dose 10 mg/kg", "conditions": "in vivo"}, "[4]": {"system": "BaF3", "assay": "(§2) Induction of apoptosis in KIF5B-RET fusion protein expressing mouse BaF3 cells implanted in BALB/c mouse assessed as increase in cleaved caspase-3 level at 30 to 50 mg/kg, iv administered once daily for 7 days measured 4 hrs post last dose by H and E staining based immunohistochemical analysis", "type": "functional, organism-based", "conditions": "dose 30-50 mg/kg, time 7.0 day"}, "[5]": {"system": "BaF3", "assay": "Induction of apoptosis in KIF5B-RET V804M mutant fusion protein expressing mouse BaF3 cells implanted in BALB/c mouse assessed as increase in cleaved PARP level at 30 to 50 mg/kg, iv administered once daily for 7 days measured 4 hrs post last dose by Western blot analysis", "type": "functional, organism-based", "conditions": "dose 30-50 mg/kg, time 7.0 day"}, "[6]": {"system": "Kinesin-1 heavy chain/ Tyrosine-protein kinase receptor RET (Homo sapiens), P07949+P33176 [V804M]", "assay": "Inhibition of KIF5B-RET V804M mutant fusion protein (unknown origin) expressed in mouse BaF3 cells assessed as reduction in RET autophosphorylation at 100 nM measured after 4 hrs by Western blot analysis", "type": "cell-based"}, "[7]": {"system": "BaF3", "assay": "Induction of apoptosis in KIF5B-RET fusion protein expressing mouse BaF3 cells implanted in BALB/c mouse assessed as increase in cleaved PARP level at 30 to 50 mg/kg, iv administered once daily for 7 days measured 4 hrs post last dose by Western blot analysis", "type": "functional, organism-based", "conditions": "dose 30-50 mg/kg, time 7.0 day"}, "[8]": {"molecular_target": "T1, Kinesin-1 heavy chain/ Tyrosine-protein kinase receptor RET (Homo sapiens) (UniProt P07949+P33176)", "T1 sequence (P07949 29-1114 limits assumed)": "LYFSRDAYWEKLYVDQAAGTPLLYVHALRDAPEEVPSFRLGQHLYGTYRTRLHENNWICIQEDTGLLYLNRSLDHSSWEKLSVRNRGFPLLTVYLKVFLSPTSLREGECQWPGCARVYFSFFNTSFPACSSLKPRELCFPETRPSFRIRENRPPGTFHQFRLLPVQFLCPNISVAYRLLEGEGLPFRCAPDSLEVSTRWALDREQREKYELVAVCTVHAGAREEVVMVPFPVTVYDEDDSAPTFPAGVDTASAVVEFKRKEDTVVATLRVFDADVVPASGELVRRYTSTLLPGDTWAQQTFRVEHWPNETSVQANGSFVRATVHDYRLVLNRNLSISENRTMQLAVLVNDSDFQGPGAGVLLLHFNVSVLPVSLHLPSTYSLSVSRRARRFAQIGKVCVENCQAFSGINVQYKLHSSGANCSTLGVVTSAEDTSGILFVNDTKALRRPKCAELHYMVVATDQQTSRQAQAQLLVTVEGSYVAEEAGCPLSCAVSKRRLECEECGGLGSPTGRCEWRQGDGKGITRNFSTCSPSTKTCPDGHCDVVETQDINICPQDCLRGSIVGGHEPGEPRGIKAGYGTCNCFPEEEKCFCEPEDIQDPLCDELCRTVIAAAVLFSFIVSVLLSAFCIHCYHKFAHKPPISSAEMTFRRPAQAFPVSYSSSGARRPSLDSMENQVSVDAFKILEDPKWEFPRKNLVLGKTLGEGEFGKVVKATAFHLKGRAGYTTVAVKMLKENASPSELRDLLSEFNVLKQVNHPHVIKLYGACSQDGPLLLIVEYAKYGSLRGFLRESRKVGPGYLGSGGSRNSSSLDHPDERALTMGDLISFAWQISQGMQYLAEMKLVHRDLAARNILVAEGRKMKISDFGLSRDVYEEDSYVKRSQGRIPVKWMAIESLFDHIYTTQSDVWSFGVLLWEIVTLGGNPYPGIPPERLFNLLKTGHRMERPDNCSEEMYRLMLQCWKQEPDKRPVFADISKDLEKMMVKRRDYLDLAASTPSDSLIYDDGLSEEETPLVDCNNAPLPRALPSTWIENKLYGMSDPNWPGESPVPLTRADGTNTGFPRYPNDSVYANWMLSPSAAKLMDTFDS", "T1 sequence (P33176 2-963 partner limits assumed)": "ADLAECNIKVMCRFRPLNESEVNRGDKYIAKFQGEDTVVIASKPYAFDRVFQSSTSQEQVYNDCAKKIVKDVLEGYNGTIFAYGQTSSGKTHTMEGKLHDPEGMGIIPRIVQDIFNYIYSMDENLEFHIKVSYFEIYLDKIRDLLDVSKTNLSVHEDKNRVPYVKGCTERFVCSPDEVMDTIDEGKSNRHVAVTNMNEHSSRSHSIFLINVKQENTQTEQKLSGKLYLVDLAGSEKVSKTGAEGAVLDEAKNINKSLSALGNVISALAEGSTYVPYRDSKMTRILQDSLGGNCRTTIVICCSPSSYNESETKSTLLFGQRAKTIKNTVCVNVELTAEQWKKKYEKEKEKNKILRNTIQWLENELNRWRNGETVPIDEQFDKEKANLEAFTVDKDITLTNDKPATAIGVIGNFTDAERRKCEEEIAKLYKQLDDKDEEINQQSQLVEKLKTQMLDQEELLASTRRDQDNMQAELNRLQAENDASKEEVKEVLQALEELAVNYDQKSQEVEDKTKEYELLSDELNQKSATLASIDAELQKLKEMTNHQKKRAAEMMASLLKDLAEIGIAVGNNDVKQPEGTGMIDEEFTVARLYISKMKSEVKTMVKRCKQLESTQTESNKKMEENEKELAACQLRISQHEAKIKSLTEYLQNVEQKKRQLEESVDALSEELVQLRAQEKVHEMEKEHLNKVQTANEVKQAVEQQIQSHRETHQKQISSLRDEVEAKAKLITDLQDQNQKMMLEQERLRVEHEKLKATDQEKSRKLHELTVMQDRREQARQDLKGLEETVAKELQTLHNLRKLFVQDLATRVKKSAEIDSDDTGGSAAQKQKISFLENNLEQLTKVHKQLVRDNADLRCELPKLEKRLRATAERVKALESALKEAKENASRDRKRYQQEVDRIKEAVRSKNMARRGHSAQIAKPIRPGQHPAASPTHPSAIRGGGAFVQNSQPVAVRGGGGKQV", "assay": "Inhibition of KIF5B-RET fusion protein (unknown origin) expressed in mouse BaF3 cells assessed as reduction in […] measured after 4 hrs by Western blot analysis", "type": "cell-based"}, "[9]": {"system": "Kinesin-1 heavy chain/ Tyrosine-protein kinase receptor RET (Homo sapiens), P07949+P33176 [V804M]", "assay": "Inhibition of KIF5B-RET V804M mutant fusion protein (unknown origin) expressed in mouse BaF3 cells assessed as reduction in […] measured after 4 hrs by Western blot analysis", "type": "cell-based"}, "[10]": {"molecular_target": "Coiled-coil domain-containing protein 6/Tyrosine-protein kinase receptor RET (Homo sapiens, UniProt P07949)", "sequence (P07949 whole entry, the tested form may be a part)": "as the sequence (P07949 whole entry V804M, the tested form may be a part) above, with M804V counted along it", "sequence (Q16204 whole entry, further chain, the tested form may be a part)": "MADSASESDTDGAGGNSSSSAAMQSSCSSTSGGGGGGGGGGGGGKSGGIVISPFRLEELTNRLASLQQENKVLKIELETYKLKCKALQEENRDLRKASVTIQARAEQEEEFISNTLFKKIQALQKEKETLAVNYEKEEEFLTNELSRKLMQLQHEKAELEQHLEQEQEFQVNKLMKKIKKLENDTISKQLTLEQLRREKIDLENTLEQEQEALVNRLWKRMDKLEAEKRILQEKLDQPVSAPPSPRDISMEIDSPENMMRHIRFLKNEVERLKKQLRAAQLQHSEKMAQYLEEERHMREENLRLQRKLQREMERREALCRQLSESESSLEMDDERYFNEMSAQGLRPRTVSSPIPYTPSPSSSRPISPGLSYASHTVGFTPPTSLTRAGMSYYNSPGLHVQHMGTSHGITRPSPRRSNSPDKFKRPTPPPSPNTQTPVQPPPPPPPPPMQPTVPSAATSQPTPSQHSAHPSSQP", "assay": "Inhibition of human N-terminal GST-HIS6 fused CCDC6-RET fusion protein (Met1 to Ser503 residues) expressed in Sf9 insect cells using TRK-C-derived peptide as substrate in presence of [33P]-ATP by filter binding assay"}, "[11]": {"molecular_target": "T2, Coiled-coil domain-containing protein 6/Tyrosine-protein kinase receptor RET (Homo sapiens) (UniProt P07949+Q16204)", "T2 sequence (P07949 29-1114 limits assumed)": "as the sequence (P07949 29-1114 limits assumed) above", "T2 sequence (Q16204 2-474 partner limits assumed)": "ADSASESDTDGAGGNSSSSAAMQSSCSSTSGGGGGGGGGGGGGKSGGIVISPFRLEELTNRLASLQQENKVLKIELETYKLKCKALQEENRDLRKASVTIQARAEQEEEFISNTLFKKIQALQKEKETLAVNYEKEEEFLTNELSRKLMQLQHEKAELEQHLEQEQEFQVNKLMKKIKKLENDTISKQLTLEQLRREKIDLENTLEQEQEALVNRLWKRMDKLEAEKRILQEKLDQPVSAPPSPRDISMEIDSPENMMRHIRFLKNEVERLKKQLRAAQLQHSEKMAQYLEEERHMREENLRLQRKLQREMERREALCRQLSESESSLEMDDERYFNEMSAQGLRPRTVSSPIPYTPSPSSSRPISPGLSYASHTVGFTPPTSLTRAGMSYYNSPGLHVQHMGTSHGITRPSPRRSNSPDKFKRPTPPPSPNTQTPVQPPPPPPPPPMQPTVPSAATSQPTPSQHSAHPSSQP", "assay": "Inhibition of CCDC6-RET fusion protein (unknown origin) expressed in mouse BaF3 cells assessed as reduction in RET phosphorylation at 10 to 500 nM measured after 4 hrs by Western blot analysis", "type": "cell-based", "conditions": "dose 10-500 nM"}, "[12]": {"system": "Kinesin-1 heavy chain/ Tyrosine-protein kinase receptor RET (Homo sapiens), P07949+P33176 [V804M]", "assay": "Inhibition of KIF5B-RET V804M mutant fusion protein (unknown origin) expressed in mouse BaF3 cells assessed as reduction in ERK phosphorylation at 500 nM measured after 4 hrs by Western blot analysis", "type": "cell-based"}, "[13]": {"system": "BaF3", "assay": "Antitumor activity against KIF5B-RET fusion protein expressing mouse BaF3 cells implanted in iv dosed BALB/c mouse assessed as tumor growth inhibition administered once daily for 7 days", "type": "functional, organism-based", "conditions": "dose 30-50 mg/kg, time 7.0 day"}, "[14]": {"molecular_target": "T1, Kinesin-1 heavy chain/ Tyrosine-protein kinase receptor RET (Homo sapiens)", "assay": "Inhibition of KIF5B-RET fusion protein (unknown origin) expressed in mouse BaF3 cells assessed as reduction in cell proliferation measured after 48 hrs by MTS assay", "type": "cell-based"}, "[15]": {"system": "BGC-823", "assay": "Antiproliferative activity against human BGC-823 cells at 3.3 uM measured after 48 hrs by MTS assay", "type": "functional", "conditions": "read-out: GI"}, "[16]": {"system": "Mus musculus", "assay": "as §1, with “KIF5B-RET V804M mutant” for “KIF5B-RET”, “SHC” for “RET”", "type": "functional, organism-based", "conditions": "dose 30-50 mg/kg, time 7.0 day"}, "[17]": {"molecular_target": "T3, Proto-oncogene tyrosine-protein kinase receptor Ret (Homo sapiens, UniProt P07949)", "T3 sequence (P07949 whole entry)": "as the sequence (P07949 whole entry V804M, the tested form may be a part) above, with M804V counted along it", "assay": "Inhibition of RET in human LC-2-ad cells assessed as reduction in SHC phosphorylation", "type": "cell-based"}, "[18]": {"system": "NCI-H3122", "assay": "Antiproliferative activity against human NCI-H3122 cells measured after 48 hrs by MTS assay", "type": "functional"}, "[19]": {"assay": "Toxicity in BALB/c mouse implanted with KIF5B-RET fusion protein expressing mouse BaF3 cells assessed as body weight loss at 30 to 50 mg/kg, iv administered daily for 7 days measured daily during compound dosing", "type": "organism-based", "conditions": "in vivo, 168 h, dose 30-50 mg/kg, time 7 day"}, "[20]": {"system": "BaF3", "assay": "Inhibition of CCDC6-RET V804M mutant fusion protein (unknown origin) expressed in mouse BaF3 cells assessed as reduction in ERK phosphorylation at 10 to 500 nM measured after 4 hrs by Western blot analysis", "type": "cell-based", "conditions": "Homo sapiens, dose 10-500 nM"}, "[21]": {"system": "BaF3", "assay": "Inhibition of CCDC6-RET V804M mutant fusion protein (unknown origin) expressed in mouse BaF3 cells assessed as reduction in cell proliferation measured after 48 hrs by MTS assay", "type": "cell-based", "conditions": "Homo sapiens"}, "[22]": {"system": "Kinesin-1 heavy chain/ Tyrosine-protein kinase receptor RET (Homo sapiens), P07949+P33176 [V804M]", "assay": "Inhibition of KIF5B-RET V804M mutant fusion protein (unknown origin) expressed in mouse BaF3 cells assessed as reduction in cell proliferation measured after 48 hrs by MTS assay", "type": "cell-based"}, "[23]": {"molecular_target": "T3, Proto-oncogene tyrosine-protein kinase receptor Ret", "assay": "Inhibition of RET phosphorylation in human LC-2-ad cells", "type": "cell-based"}, "[24]": {"assay": "AUC (0 to infinity) in Sprague-Dawley rat at 10 mg/kg, po", "type": "ADME, organism-based", "design": "time infinity, route oral, dose 10 mg/kg", "conditions": "in vivo"}, "[25]": {"system": "BaF3", "assay": "as §2, with “KIF5B-RET V804M mutant” for “KIF5B-RET”", "type": "functional, organism-based", "conditions": "dose 30-50 mg/kg, time 7.0 day"}, "[26]": {"system": "Kinesin-1 heavy chain/ Tyrosine-protein kinase receptor RET (Homo sapiens), P07949+P33176 [V804M]", "assay": "Inhibition of KIF5B-RET V804M mutant fusion protein (unknown origin) expressed in mouse BaF3 cells assessed as reduction in AKT phosphorylation at 500 nM measured after 4 hrs by Western blot analysis", "type": "cell-based"}, "[27]": {"molecular_target": "Proto-oncogene tyrosine-protein kinase receptor Ret (Homo sapiens, UniProt P07949, M918T)", "sequence (P07949 29-1114 M918T limits assumed)": "as the sequence (P07949 29-1114 limits assumed) above, with M890T counted along it", "assay": "Inhibition of recombinant human N-terminal GST-HIS6 fused RET M918T mutant C-terminal domain (H658 to S1114 residues) expressed in Sf9 insect cells using TRK-C-derived peptide as substrate in presence of [33P]-ATP by filter binding assay"}, "[28]": {"molecular_target": "T2, Coiled-coil domain-containing protein 6/Tyrosine-protein kinase receptor RET (Homo sapiens)", "assay": "Inhibition of CCDC6-RET fusion protein (unknown origin) expressed in mouse BaF3 cells assessed as reduction in cell proliferation measured after 48 hrs by MTS assay", "type": "cell-based"}, "[29]": {"assay": "Toxicity in BALB/c mouse implanted with KIF5B-RET V804M mutant fusion protein expressing mouse BaF3 cells assessed as body weight loss at 30 to 50 mg/kg, iv administered daily for 7 days measured daily during compound dosing", "type": "organism-based", "conditions": "in vivo, 168 h, dose 30-50 mg/kg, time 7 day"}, "[30]": {"assay": "AUC (0 to t) in Sprague-Dawley rat at 1 mg/kg, iv", "type": "ADME, organism-based", "design": "dose 1 mg/kg", "conditions": "in vivo"}},
  "note": "Activity calls are given as the source filed them. The rule behind the calls is not given here.",
  "data": [
    {"smiles": "Cc1ccc(C(=O)Nc2ccc(CN3CCN(C)CC3)c(C(F)(F)F)c2)cc1Oc1nc(-c2cccnc2)nc2[nH]ncc12", "values": [
      {"measurement": "Activity", "setting": "[1]", "value": 0.25, "unit": "%"},
      {"measurement": "inhibition", "setting": "[2]", "value": "Dose-dependent effect"},
      {"measurement": "Cmax", "setting": "[3]", "value": 194, "unit": "ng/mL"},
      {"measurement": "Activity", "setting": "[4]", "value": "Active"},
      {"measurement": "Activity", "setting": "[5]", "value": "Active"},
      {"measurement": "inhibition", "setting": "[6]", "value": "Dose-dependent effect"},
      {"measurement": "Activity", "setting": "[7]", "value": "Active"},
      {"measurement": "inhibition", "setting": "[8]", "value": "Dose-dependent effect"},
      {"measurement": "inhibition", "setting": "[9]", "value": "Dose-dependent effect"},
      {"measurement": "IC50", "setting": "[10]", "value": 5.43, "unit": "nM"},
      {"measurement": "inhibition", "setting": "[11]", "value": "Active"},
      {"measurement": "inhibition", "setting": "[12]", "value": "Active"},
      {"measurement": "Activity", "setting": "[13]", "value": "Dose-dependent effect"},
      {"measurement": "GI50", "setting": "[14]", "value": 17, "unit": "nM"},
      {"measurement": "inhibition of growth at 3.3 µM", "setting": "[15]", "value": 39, "unit": "%"},
      {"measurement": "inhibition", "setting": "[16]", "value": "Dose-dependent effect"},
      {"measurement": "inhibition", "setting": "[17]", "value": "Active"},
      {"measurement": "GI50", "setting": "[18]", "value": 5680, "unit": "nM"},
      {"measurement": "Activity", "setting": "[19]", "value": "Non-Toxic"},
      {"measurement": "inhibition", "setting": "[20]", "value": "Active"},
      {"measurement": "GI50", "setting": "[21]", "value": 45, "unit": "nM"},
      {"measurement": "GI50", "setting": "[22]", "value": 21, "unit": "nM"},
      {"measurement": "inhibition", "setting": "[23]", "value": "Active"},
      {"measurement": "AUC(0-inf)", "setting": "[24]", "value": 2340, "unit": "ng·h/mL"},
      {"measurement": "Activity", "setting": "[25]", "value": "Active"},
      {"measurement": "inhibition", "setting": "[26]", "value": "Active"},
      {"measurement": "IC50", "setting": "[27]", "value": 8.42, "unit": "nM"},
      {"measurement": "GI50", "setting": "[28]", "value": 9, "unit": "nM"},
      {"measurement": "Activity", "setting": "[29]", "value": "Non-Toxic"},
      {"measurement": "AUC(0-t)", "setting": "[30]", "value": 6960, "unit": "ng·h/mL"}
    ]}
  ]
}
